These results are taken from patent publication US7410989B2, “Compounds, methods and compositions useful for the treatment of bovine viral diarrhea virus (BVDV) infection and hepatitis C virus (HCV) infection” (The University of North Carolina at Chapel Hill, priority 2001, dated 2008).

One series has as its system BVDV. The series can be described thus: Screening of antiviral compounds for anti-BVDV activity in MDBK cells; virus titre by immunoperoxidase monolayer assay. The following applies: 12.5 μM compound, BVDV MOI 0.5, day 3. The format is cell-based, bovine viral diarrhea virus. The procedure:
2.0 cm^2 wells in a 24-well plate were seeded with 50 μl of medium from 12 ml of MEM-eq (minimum essential medium (MEM) with Earle's salts supplemented with 10% (v/v) equine serum, sodium bicarbonate (0.75 mg/ml), L-glutamine (0.29 mg/ml), penicillin G (100 U/ml), streptomycin (100 μg/ml), and amphotericin B (0.25 μg/ml)), which was derived by trypsinization of a confluent monolayer of Madin Darby Bovine Kidney (MDBK) cells in a 25 cm^2 flask. Cells were incubated at 38.5° C. with 5% CO2 for 24 hours. The average number of cells per well was determined and later used to calculate appropriate multiplicities of infection (MOI) of BVDV virus. […]
The inoculated cells incubated for one hour at 38.5° C. with 5% CO2 in humidified air. The medium was removed from the wells, and the cells washed one time with Ca^2+ and Mg^2+-free PBS comprising antiviral compound (12.5 μM) (cells in the wells not initially treated with antiviral compounds were washed without antiviral compound). […] Three days post-inoculation, medium was removed and stored at −20° C. for assay. […] Seven days post-inoculation, medium was removed and stored at −80° C. for serial dilution & assay.
The MDBK cells were resuspended in MEM-eq with no antiviral compound. Uterine tubal cells (UTC) were freeze-thawed and stored at −80° C. for analysis. UTC lysates were serially diluted with medium from Day 7 and assayed by immunoperoxidase for the presence of BVDV.
All samples were assayed for BVDV using the immunoperoxidase monolayer assay as described in A. Afshar et al., Can J Vet Res; 55:91-93 (1991). Samples were assayed in triplicate by adding 50 μL of MEM-eq containing approximately 2.5×10^3 MDBK cells to 50-μL of each sample supplemented with 50 μL of fresh MEM-eq in a 96-well culture plate. Plates were incubated for 72 h at 38.5° C. in a humidified atmosphere of 5% CO2 and air before the immunoperoxidase labeling technique was performed as follows:
After fixation, potentially infected cells were incubated with monoclonal antibodies D89 (M. L. Vickers et al., J Vet Diagn Invest 2, 300-302 (1990); Xue W et al., J Clin Microbiol 28, 1688-1693 […] specific for E2/gp53, a major envelope glycoprotein of BVDV (Xue W et al., Vet Microbiol 57, 105-118 (1997)) and 20.10.6 specific for NS3-p80, a conserved nonstructural protein (W. V. Corapi et al., Am J Vet Res 51, 1388-1394 (1990)). After washing with PBS and Tween 20 to remove unbound antibodies, peroxidase-conjugated rabbit anti-mouse IgG (Jackson Immuno Research Lab, West Grove, Pa.) was added. After a short incubation period, unbound peroxidase-conjugated antibody was removed by washing with PBS and Tween 20. Finally, the enzyme substrate, aminoethyl carbazole (Zymed Laboratories, Inc., South San Francisco, Calif.), which produces a reddish-brown color when oxidized by horseradish peroxidase, was added. Color change was visualized under light microscopy and compared to known positive and negative controls on each plate.
The tissue culture infective dose 50% (TCID50)/ml of the exposure aliquot was determined by the method of Reed and Muench (L. J. Reed and H. Muench, Am J Hygiene 27, 493-497 (1938). Results of viral detection assays were compared using a Pearson Chi-square test statistic (J. Sall and A. Lehman, JMP Start Statistics (Duxbury Press, Belmont, Calif. (1996), 195-211).

Where a name gives a salt, the structure may show the parent alone. Bounds are passed on as bounds.

The melting point is the temperature, or range, at which the solid turns liquid. In the case of `Cc1cc(NC(=N)N)ccc1-c1ccc(-c2ccc(NC(=N)N)cc2C)o1.Cl.Cl`, the melting point was 265 to 271 °C (dec.). As to `Cl.Cl.N=C(N)Nc1ccc(-c2ccc(-c3ccc(NC(=N)N)cc3Cl)o2)c(Cl)c1`, the melting point was 300 to 304 °C (dec.). With `Nc1ccc(-c2ccc(-c3nc4ccc(C5=NCCN5)cc4[nH]3)o2)cc1` (as salt: salt) [DB 456, 2-[5 (6)-{2-imidazolinyl}-2-benzimidazoyl]-5-(4-aminophenyl)furan], the melting point is above 300 °C. The compound `O=[N+]([O-])c1ccc(-c2ccc(-c3nc4ccc(C5=NCCN5)cc4[nH]3)o2)cc1` (as salt: salt) [DB 457, 2-[5 (6)-{2-imidazolinyl}-2-benzimidazoyl]-5-(4-nitrophenyl)furan] displayed a melting point above 300 °C.

As to `Cc1cc(NC(=N)N)ccc1-c1ccc(-c2ccc(NC(=N)N)cc2C)s1` [DB 752], the “Day 3 Cell Lysates TCID50/mL” value in the series on BVDV (cell lysates) worked out at 6.20E+02 TCID50/mL. The “Day 3 Cell Lysates % Control” value with BVDV (cell lysates, titre as % of no-antiviral control) turned out to be 0.01%. Further, the “Day 3 Media TCID50/mL” value with BVDV (culture medium) is “Negative”.
